Laboratory results from patent US11926614B2, “1,2,4-triazole derivatives as tankyrase inhibitors” (priority 2018, dated 2024).
Values joined by “and” are separate entries in the source; they are usually repeats but may differ in a detail not shown here. Identical values can stand only once. Like-named read-outs stand apart in the source and are kept apart here.

Columns and labels:
TNKS2 = TNKS2 (Homo sapiens (Human), UniProt Q9H2K2); experiment: Biochemical IC50 TNKS2; details: read-out: Biochemical IC50 TNKS2
Excerpt: (§1) XLfit (idbs) was used to determine the IC50-values in inhibition experiments. The following formula was chosen to fit the data points (Langmuir Binding Isotherm): fit=((A+(B*x))+4(C−B)*(1−exp((−1*D)*x)))/D)), res=(y−fit)

HEK293 = experiment: Cellular IC50 HEK293; assay type: cell-based
Excerpt: as §1

[1] = Homo sapiens, HEK293, HEK293; read-out: Cellular IC50 HEK293
[2] = Homo sapiens, HEK293, read-out: Cellular IC50 HEK293
[3] = Homo sapiens, HEK293; read-out: Cellular IC50 HEK293

Sequence of TNKS2 (Q9H2K2 whole entry): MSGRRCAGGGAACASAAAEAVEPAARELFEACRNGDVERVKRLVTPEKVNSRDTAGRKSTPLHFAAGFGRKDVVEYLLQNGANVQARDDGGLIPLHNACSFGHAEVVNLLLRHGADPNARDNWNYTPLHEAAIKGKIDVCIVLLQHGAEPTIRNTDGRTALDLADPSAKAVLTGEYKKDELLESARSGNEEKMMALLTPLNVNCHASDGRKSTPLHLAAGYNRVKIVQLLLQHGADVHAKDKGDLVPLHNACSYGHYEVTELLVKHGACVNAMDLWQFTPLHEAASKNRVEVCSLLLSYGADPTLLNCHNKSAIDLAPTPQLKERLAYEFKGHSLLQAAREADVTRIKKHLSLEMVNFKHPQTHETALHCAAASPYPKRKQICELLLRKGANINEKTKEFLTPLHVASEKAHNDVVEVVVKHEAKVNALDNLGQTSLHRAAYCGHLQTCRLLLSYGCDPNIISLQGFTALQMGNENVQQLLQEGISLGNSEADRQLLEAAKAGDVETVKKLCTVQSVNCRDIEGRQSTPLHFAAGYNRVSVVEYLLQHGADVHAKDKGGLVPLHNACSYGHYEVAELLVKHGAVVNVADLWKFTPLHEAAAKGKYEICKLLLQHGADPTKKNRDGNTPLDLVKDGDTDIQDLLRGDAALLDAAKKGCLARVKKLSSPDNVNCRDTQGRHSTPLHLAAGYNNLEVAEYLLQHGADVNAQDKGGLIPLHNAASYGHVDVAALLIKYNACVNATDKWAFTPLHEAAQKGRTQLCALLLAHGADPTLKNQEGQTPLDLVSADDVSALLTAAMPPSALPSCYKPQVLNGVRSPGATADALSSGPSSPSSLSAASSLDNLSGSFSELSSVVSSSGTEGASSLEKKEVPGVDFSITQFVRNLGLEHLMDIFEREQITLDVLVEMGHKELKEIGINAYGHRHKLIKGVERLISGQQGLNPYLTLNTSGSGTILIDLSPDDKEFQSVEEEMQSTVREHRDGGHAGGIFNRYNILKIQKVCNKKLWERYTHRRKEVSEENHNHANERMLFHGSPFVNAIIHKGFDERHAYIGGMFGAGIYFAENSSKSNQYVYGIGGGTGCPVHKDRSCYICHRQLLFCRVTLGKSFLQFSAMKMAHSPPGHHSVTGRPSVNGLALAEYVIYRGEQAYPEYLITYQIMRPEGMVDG

SMILES | IC50 (TNKS2) | IC50 (HEK293; [1]) | IC50 (HEK293; [2]) | IC50 (HEK293; [3])
CCOc1ccc(-c2nnc(C34CC(NC(=O)c5ccccn5)(C3)C4)n2-c2ccccc2)nc1 [Example 66, N-(3-(5-(5-ethoxypyridin-2-yl)-4-phenyl-4H-1,2,4-triazol-3-yl)bicyclo[1.1.1]pentan-1-yl)picolinamide] | 0.035 µM | 0.122 µM | – | –
CCOc1ccc(-c2nnc([C@H]3C[C@H](NC(=O)c4ccnc5cc(F)cnc45)C3)n2-c2ccccn2)nc1 [Example 160, N-((1r,3r)-3-(5-(5-ethoxypyridin-2-yl)-4-(pyridin-2-yl)-4H-1,2,4-triazol-3-yl)cyclobutyl)-7-fluoro-1,5-naphthyridine-4-carboxamide] | 0.022 µM | – | 0.009 µM | –
CCOc1ccc(-c2nnc([C@H]3C[C@H](NC(=O)c4cc(C)ccn4)C3)n2-c2ccccc2F)nc1 [Example 103, N-((1S,3r)-3-(5-(5-ethoxypyridin-2-yl)-4-(2-fluorophenyl)-4H-1,2,4-triazol-3-yl)cyclobutyl)-4-methylpicolinamide] | 0.0045 µM | 0.025 µM | – | –
CCOc1ccc(-c2nnc([C@H]3C[C@H](NC(=O)c4ccc(F)cc4)C3)n2-c2ccccc2)nc1 [Example 70, N-((1r,3r)-3-(5-(5-ethoxypyridin-2-yl)-4-phenyl-4H-1,2,4-triazol-3-yl)cyclobutyl)-4-fluorobenzamide] | 0.0085 µM | 0.048 µM | – | –
CCOc1ccc(-c2nnc([C@H]3C[C@H](NC(=O)c4ccnc5cccnc45)C3)n2-c2ccccn2)nc1 [Example 124, N-((1r,3r)-3-(5-(5-ethoxypridin-2-yl)-4-(pyridin-2-yl)-4H-1,2,4-triazol-3-yl)cyclobutyl)-1,5-naphthyridine-4-carboxamide] | 0.0058 µM | – | 0.036 µM | –
O=C(N[C@H]1C[C@H](c2nnc(-c3ccncn3)n2-c2ccccc2Cl)C1)c1ccncc1 [Example 8, N-((1S,3r)-3-(4-(2-chlorophenyl)-5-(pyrimidin-4-yl)-4H-1,2,4-triazol-3-yl)cyclobutyl)isonicotinamide] | 0.057 µM | 0.07 µM | – | –
CCOc1ccc(-c2nnc([C@H]3C[C@H](NC(=O)c4ccccn4)C3)n2-c2ccc(Cl)s2)nc1 [Example 75, N-((1r,3r)-3-(4-(5-chlorothiophen-2-yl)-5-(5-ethoxypyridin-2-yl)-4H-1,2,4-triazol-3-yl)cyclobutyl)picolinamide] | 0.012 µM | – | 0.027 µM | –
CCOc1ccc(-c2nnc([C@H]3C[C@H](NC(=O)c4nn(C)c5ccccc45)C3)n2-c2ccccc2F)nc1 [Example 153, N-((1S,3r)-3-(5-(5-ethoxypyridin-2-yl)-4-(2-fluorophenyl)-4H-1,2,4-triazol-3-yl)cyclobutyl)-1-methyl-1H-indazole-3-carboxamide] | 0.013 µM | 0.056 µM | – | –
O=C(N[C@H]1C[C@H](c2nnc(-c3ccncn3)n2-c2ccccc2Cl)C1)c1ccccc1F [Example 13, N-((1S,3r)-3-(4-(2-chlorophenyl)-5-(pyrimidin-4-yl)-4H-1,2,4-triazol-3-yl)cyclobutyl)-2-fluorobenzamide] | 0.0064 µM | 0.03 µM | – | –
CCOc1ccc(-c2nnc([C@H]3C[C@H](NC(=O)c4cccc5nccnc45)C3)n2-c2ccccc2F)nc1 [Example 154, N-((1S,3r)-3-(5-(5-ethoxypyridin-2-yl)-4-(2-fluorophenyl)-4H-1,2,4-triazol-3-yl)cyclobutyl)quinoxaline-5-carboxamide] | – | – | 0.00053 µM | –
O=C(N[C@H]1C[C@H](c2nnc(-c3ccc(OC(F)F)cn3)n2-c2ccccc2F)C1)c1ccc2cnccc2n1 [Example 184, N-((1S,3r)-3-(5-(5-(difluoromethoxy)pyridin-2-yl)-4-(2-fluorophenyl)-4H-1,2,4-triazol-3-yl)cyclobutyl)-1,6-naphthyridine-2-carboxamide] | 0.0034 µM | 0.01 µM | – | –
O=C(N[C@H]1C[C@H](c2nnc(-c3ccncn3)n2-c2ccccc2Cl)C1)c1c(F)cccc1F [Example 16, N-((1S,3r)-3-(4-(2-chlorophenyl)-5-(pyrimidin-4-yl)-4H-1,2,4-triazol-3-yl)cyclobutyl)-2,6-difluorobenzamide] | – | 7.68 µM | – | –
CCOc1ccc(C(=O)N[C@H]2C[C@H](c3nnc(-c4ccncn4)n3-c3ccccc3Cl)C2)nc1 [Example 130, N-((1R,3r)-3-(4-(2-chlorophenyl)-5-(pyrimidin-4-yl)-4H-1,2,4-triazol-3-yl)cyclobutyl)-5-ethoxypicolinamide] | 0.0048 µM | 0.0014 µM | – | –
CS(=O)(=O)c1ccc(-c2nnc([C@H]3C[C@H](NC(=O)c4ccnc5cc(F)cnc45)C3)n2-c2ccccc2F)nc1 [Example 50, 7-fluoro-N-((1S,3r)-3-(4-(2-fluorophenyl)-5-(5-(methylsulfonyl)pyridin-2-yl)-4H-1,2,4-triazol-3-yl)cyclobutyl)-1,5-naphthyridine-4-carboxamide] | 0.0016 µM | 0.00023 µM | – | –
CC(C)Oc1ccc(-c2nnc([C@H]3C[C@H](NC(=O)c4ccccn4)C3)n2-c2ccccc2F)nc1 [Example 111, N-((1S,3r)-3-(4-(2-fluorophenyl)-5-(5-isopropoxypyridin-2-yl)-4H-1,2,4-triazol-3-yl)cyclobutyl)picolinamide] | 0.012 µM | – | 0.11 µM | –
CCOc1ccc(-c2nnc(C34CC(NC(=O)c5ccnc6cc(F)cnc56)(C3)C4)n2-c2ccc(C)s2)nc1 [Example 86, N-(3-(5-(5-ethoxypyridin-2-yl)-4-(5-methylthiophen-2-yl)-4H-1,2,4-triazol-3-yl)bicyclo[1.1.1]pentan-1-yl)-7-fluoro-1,5-naphthyridine-4-carboxamide] | 0.0022 µM | 0.0017 µM | – | –
O=C(N[C@H]1C[C@H](c2nnc(-c3nccs3)n2-c2ccccc2F)C1)c1ccnc2cc(F)cnc12 [Example 29, 7-fluoro-N-((1S,3r)-3-(4-(2-fluorophenyl)-5-(thiazol-2-yl)-4H-1,2,4-triazol-3-yl)cyclobutyl)-1,5-naphthyridine-4-carboxamide] | – | 0.0013 µM | – | –
[2H]C([2H])([2H])C([2H])([2H])Oc1ccc(-c2nnc([C@H]3C[C@H](NC(=O)c4ccccn4)C3)n2-c2ccccc2F)nc1 [Example 93, N-((1S,3r)-3-(5-(5-(ethoxy-d5)pyridin-2-yl)-4-(2-fluorophenyl)-4H-1,2,4-triazol-3-yl)cyclobutyl)picolinamide] | – | – | – | 0.0095 µM
CCOc1ccc(-c2nnc([C@H]3C[C@H](NC(=O)c4ccc(F)cc4)C3)n2-c2ccccc2F)nc1 [Example 56, N-((1S,3r)-3-(5-(5-ethoxypyridin-2-yl)-4-(2-fluorophenyl)-4H-1,2,4-triazol-3-yl)cyclobutyl)-4-fluorobenzamide] | 0.01 µM and 0.002 µM | – | – | –
CCOc1ccc(-c2nnc([C@H]3C[C@H](NC(=O)c4ccccn4)C3)n2-c2ccccc2F)nc1 [Example 54, N-((1S,3r)-3-(5-(5-ethoxypyridin-2-yl)-4-(2-fluorophenyl)-4H-1,2,4-triazol-3-yl)cyclobutyl)picolinamide] | – | – | – | 0.017 µM
CCOc1ccc(-c2nnc([C@H]3C[C@H](NC(=O)c4cccc5cccnc45)C3)n2-c2ccccc2)nc1 [Example 71, N-((1r,3r)-3-(5-(5-ethoxypyridin-2-yl)-4-phenyl-4H-1,2,4-triazol-3-yl)cyclobutyl)quinoline-8-carboxamide] | – | 0.0018 µM | – | –
